In brackets after ≈: the same amount, converted by molar mass. Activity calls are given as the source filed them. No cut-off for these calls is given here. Bridge positions count the residues as written; N and C are the ends. Square brackets hold non-standard residues; d marks the D form. Peptide text beside a SMILES is read from it. * marks the point of attachment. ξ: configuration not given here. Hexanoyl(4ξ-Me) = CCC(C)CCC(=O)*; dOrn = NCCC[C@@H](N)C(=O)O; Orn = NCCC[C@H](N)C(=O)O
Assays:
Pseudomonas aeruginosa [1] = experiment: Antibacterial activity against Pseudomonas aeruginosa ATCC 27853 assessed as reduction in survival bacterial growth in presence of chymotrypsin measured after 8 hrs by absorbance based analysis; type: functional, organism-based
[2] = Toxicity in male BALB/c mouse assessed as edema in kidney at 46.88 mg/kg, ip administered as single dose by H and E staining based analysis; type: organism-based; conditions: in vivo
[3] = Toxicity in male BALB/c mouse assessed as hemorrhage in kidney at 46.88 mg/kg, ip administered as single dose by H and E staining based analysis; type: organism-based; conditions: in vivo
Staphylococcus aureus [4] = experiment: Antibacterial activity against Staphylococcus aureus ATCC 25923 pretreated with 10% mouse serum followed by compound addition and measured after 1 hr by broth microdilution method (reference value: 8 microM); type: functional
Pseudomonas aeruginosa [5] = experiment: Antibacterial activity against Pseudomonas aeruginosa ATCC 27853 assessed as reduction in survival bacterial growth in presence of trypsin measured after 8 hrs by absorbance based analysis; type: functional, organism-based
[6] = Retention time of the compound in mouse serum by RP-HPLC analysis; type: ADME, cell-free
[7] = Cytotoxicity against human HK-2 cells measured after 24 hrs MTT assay; type: toxicity, cell-based
Staphylococcus aureus [8] = experiment: Bactericidal activity against Staphylococcus aureus ATCC 25923 assessed as assessed as eradication of bacterial cells at 1/2 times MIC measured after 6 hrs by time killing analysis; type: functional, organism-based
Pseudomonas aeruginosa [9] = experiment: Antimicrobial activity against Pseudomonas aeruginosa ATCC 27853 assessed as reduction in microbial growth at 2 times MIC measured for 18 hrs in presence of 256 microg/ml LPS; type: functional, organism-based
[10] = Toxicity in male BALB/c mouse assessed as lethal dose administered as ip measured after 7 days; type: organism-based; conditions: male, BALB/c, in vivo, time 7 day
Cell membrane [11] = experiment: Induction of cytoplasmic membrane depolarization in Staphylococcus aureus ATCC 25923 assessed as increase in fluorescence intensity measured upto 12 min by DiSC3-5 dye based fluorescence method; type: cell membranes
Staphylococcus aureus [12] = experiment: In vivo antibacterial activity against Staphylococcus aureus ATCC 25923 infected in BALB/c mouse model assessed as reduction in bacterial count in kidney at 10 mg/kg, ip preadministered with compound for 1 hr followed by bacterial infection and measured after 6 hrs […]; type: functional, organism-based; conditions: time 7.0 hrs
Staphylococcus aureus [13] = experiment: In vivo antibacterial activity against Staphylococcus aureus ATCC 25923 infected in BALB/c mouse model assessed as amelioration of pathological changes in liver at 5 to 10 mg/kg, ip measured after 7 hrs by H and E staining based analysis; type: functional, organism-based; conditions: dose 5-10 mg/kg
Staphylococcus aureus [14] = experiment: Induction of morphological changes in Staphylococcus aureus ATCC 25923 assessed as adhesion at 2 times MIC measured after 0.5 hrs by SEM based analysis; type: functional, organism-based
[15] = Toxicity in male BALB/c mouse assessed as survival rate at 90.9 mg/kg, ip measured after 6 days relative to control; type: organism-based; conditions: in vivo, time 6 day
Pseudomonas aeruginosa [16] = experiment: Antibacterial activity against Pseudomonas aeruginosa ATCC 27853 at sub-MIC measured after 20 days; type: functional, organism-based; conditions: time 20.0 day
Cell membrane [17] = experiment: Induction of cytoplasmic membrane depolarization in Pseudomonas aeruginosa ATCC 27853 assessed as increase in fluorescence intensity measured upto 12 min by DiSC3-5 dye based fluorescence method; type: cell membranes
Staphylococcus aureus [18] = experiment: Antibiofilm activity against Staphylococcus aureus ATCC 25923 assessed as biofilm eradication at 1/2 to 4 times MIC measured after 24 hrs by crystal violet staining based analysis; type: functional, organism-based
Staphylococcus aureus [19] = experiment: Antibacterial activity against Staphylococcus aureus ATCC 25923 pretreated with ZnCl2 followed by compound addition and measured after 2 hrs by broth microdilution method (reference value: 8 microM); type: functional
Pseudomonas aeruginosa [20] = experiment: Antibacterial activity against Pseudomonas aeruginosa ATCC 27853 assessed as fold increase in MIC pretreated with NaCl followed by compound addition and measured after 2 hrs by broth microdilution method; type: functional
Erythrocyte = experiment: Hemolytic activity in mouse red blood cell assessed as hemolysis incubated for 1 hr; type: toxicity, cell-based
Staphylococcus aureus [21] = experiment: Bactericidal activity against Staphylococcus aureus ATCC 25923 assessed as assessed as eradication of bacterial cells at 1 to 4 times MIC measured after 0.5 to 1 hr by time killing analysis; type: functional, organism-based; conditions: time 0.5-1 hrs
[22] = Half life in mouse serum by RP-HPLC analysis; type: ADME, cell-free
Pseudomonas aeruginosa [23] = experiment: Bactericidal activity against Pseudomonas aeruginosa ATCC 27853 assessed as assessed as eradication of bacterial cells at 1/2 to 1 times MIC measured after 0.5 hr by time killing analysis relative to control; type: functional
Pseudomonas aeruginosa [24] = experiment: Antibacterial activity against Pseudomonas aeruginosa ATCC 27853 assessed as fold increase in MIC pretreated with MgCl2 followed by compound addition and measured after 2 hrs by broth microdilution method; type: functional
Staphylococcus aureus [25] = experiment: In vivo antibacterial activity against Staphylococcus aureus ATCC 25923 infected in BALB/c mouse model assessed as amelioration of pathological changes in lung at 5 to 10 mg/kg, ip measured after 7 hrs by H and E staining based analysis; type: functional, organism-based; conditions: dose 5-10 mg/kg
Staphylococcus aureus [26] = experiment: Antibacterial activity against Staphylococcus aureus ATCC 25923 pretreated with Kcl followed by compound addition and measured after 2 hrs by broth microdilution method (reference value: 64 microM); type: functional
Staphylococcus aureus [27] = experiment: Antibacterial activity against Staphylococcus aureus ATCC 25923 pretreated with Fecl3 followed by compound addition and measured after 2 hrs by broth microdilution method (reference value: 64 microM); type: functional
Staphylococcus aureus [28] = experiment: Antibacterial activity against Staphylococcus aureus ATCC 25923 pretreated with Zncl2 followed by compound addition and measured after 2 hrs by broth microdilution method (reference value: 64 microM); type: functional
Pseudomonas aeruginosa [29] = experiment: Induction of morphological changes in Pseudomonas aeruginosa ATCC 27853 assessed as membrane rupture at 2 times MIC measured after 2 hrs by SEM based analysis; type: functional, organism-based
Staphylococcus aureus [30] = experiment: Antibacterial activity against Staphylococcus aureus ATCC 25923 pretreated with Mgcl2 followed by compound addition and measured after 2 hrs by broth microdilution method (reference value: 64 microM); type: functional
Staphylococcus aureus [31] = experiment: Induction of morphological changes in Staphylococcus aureus ATCC 25923 assessed as leakage of cellular content at 2 times MIC measured after 0.5 hrs by SEM based analysis; type: functional, organism-based
Pseudomonas aeruginosa [32] = experiment: Bactericidal activity against Pseudomonas aeruginosa ATCC 27853 assessed as assessed as eradication of bacterial cells at 2 to 4 times MIC measured after 0.5 hr by time killing analysis; type: functional, organism-based
Staphylococcus aureus [33] = experiment: Antibacterial activity against Staphylococcus aureus ATCC 25923 pretreated with 5% mouse serum followed by compound addition and measured after 1 hr by broth microdilution method (reference value: 64 microM); type: functional
Staphylococcus aureus [34] = experiment: Antibacterial activity against Staphylococcus aureus ATCC 25923 pretreated with 5% mouse serum followed by compound addition and measured after 6 hrs by broth microdilution method (reference value: 64 microM); type: functional
Pseudomonas aeruginosa [35] = experiment: Bactericidal activity against Pseudomonas aeruginosa ATCC 27853 assessed as assessed as eradication of bacterial cells at 1/2 to 1 times MIC measured after 1 hr by time killing analysis relative to control; type: functional
Staphylococcus aureus [36] = experiment: Antibacterial activity against Staphylococcus aureus ATCC 25923 pretreated with 5% mouse serum followed by compound addition and measured after 6 hrs by broth microdilution method (reference value: 16 microM); type: functional, organism-based

Row | Molecule | Activity (Pseudomonas aeruginosa [1]) | Activity (Pseudomonas aeruginosa [5]) | Retention_time [6] | IC50 at 24 h [7] | Activity (Pseudomonas aeruginosa [9]) | Activity (Staphylococcus aureus [12]) | Activity (Staphylococcus aureus [13]) | Activity (Pseudomonas aeruginosa [16]) | fold change (FC) (Pseudomonas aeruginosa [20]) | MHC (Erythrocyte) | half-life [22] | fold change (FC) (Pseudomonas aeruginosa [24]) | Activity (Staphylococcus aureus [25]) | Activity (Pseudomonas aeruginosa [29]) | further results
1 | CCCCCCCCCC(=O)N[C@H](CCCN)C(=O)N[C@H](Cc1ccc(O)cc1)C(=O)N[C@H](Cc1c[nH]c2ccccc12)C(=O)N[C@H](CCCN)C(=O)N[C@@H](CCCN)C(=O)NCC(=O)N[C@H](CCCN)C(=O)N[C@@H](Cc1c[nH]c2ccccc12)C(=O)N[C@H](C(=O)N[C@H](C(=O)NCC(=O)N[C@@H](CO)C(=O)O)[C@@H](C)CC)[C@@H](C)O | Active | Active | 15.312 min | 21.1 µM | inactive | Active | Active | Active | 8 | 128 µM | 41 h | 8 | Active |  | Activity [2]: Toxic; Activity [3]: Toxic; MIC (Staphylococcus aureus [4]): 32 µM (≈ 50.6 µg/mL); Activity (Staphylococcus aureus [8]): Active; LD50 at 168 h [10]: 46.9 mg/kg; Activity (Cell membrane [11]): Dose-Dependent Effect; Activity (Staphylococcus aureus [14]): Active; survival at 144 h [15]: 12.5%; Activity (Cell membrane [17]): Dose-Dependent Effect; Activity (Staphylococcus aureus [18]): Active; MIC (Staphylococcus aureus [19]): 32 µM (≈ 50.6 µg/mL); Activity (Staphylococcus aureus [21]): Active; Activity (Pseudomonas aeruginosa [23]): 100%
2 | CCC(C)CCC(=O)N[C@H](CC(N)=O)C(=O)N[C@H](Cc1ccc(O)cc1)C(=O)N[C@H](Cc1c[nH]c2ccccc12)C(=O)N[C@H](CCCN)C(=O)N[C@@H](CCCN)C(=O)NCC(=O)N[C@H](CCCN)C(=O)N[C@@H](Cc1c[nH]c2ccccc12)C(=O)N[C@@H]1C(=O)N[C@@H]([C@@H](C)CC)C(=O)NCC(=O)N[C@@H](CO)C(=O)O[C@@H]1C (stereo partly specified) ({Hexanoyl(4ξ-Me)}-[dN][dY][dW][dOrn][Orn]G[dOrn]WTIGS; ester 9-C) | Active | Active | 14.82 min | 36.5 µM |  |  |  | Active | 2 | 128 µM | 4.47 h | 4 |  | Active | MIC (Staphylococcus aureus [26]): 64 µM (≈ 97.3 µg/mL); MIC (Staphylococcus aureus [27]): 64 µM (≈ 97.3 µg/mL); MIC (Staphylococcus aureus [28]): 64 µM (≈ 97.3 µg/mL); MIC (Staphylococcus aureus [30]): 64 µM (≈ 97.3 µg/mL); Activity (Staphylococcus aureus [31]): Active; Activity (Pseudomonas aeruginosa [32]): Active; MIC (Staphylococcus aureus [33]): 64 µM (≈ 97.3 µg/mL); MIC (Staphylococcus aureus [34]): 128 µM (≈ 195 µg/mL); Activity (Pseudomonas aeruginosa [35]): 100%
3 | POLYMYXIN B |  |  |  |  | inactive | Active | Active |  |  |  |  |  | Active | Active | MIC (Staphylococcus aureus [36]): 16 µM

From ChEMBL document CHEMBL5512645, “A novel antimicrobial peptide with broad-spectrum and exceptional stability derived from the natural peptide Brevicidine” (Eur J Med Chem, 2024)
